Laboratory results: the NIST ThermoML archive (doi:10.1016/j.tca.2012.10.004)

Test: xn = mol fraction of the nth substance listed
Settings: 101 kPa, Liquid, Pycnometric method

CN(CCO)CCO [N-methyldiethanolamine] + O=S1(=O)CCCC1
mass density [kg/m3]
Settings | x1 = 0.1001 | x1 = 0.2012 | x1 = 0.2999 | x1 = 0.4003 | x1 = 0.5005 | x1 = 0.6 | x1 = 0.7002 | x1 = 0.8011 | x1 = 0.8998 | x1 = 1
293.15 K | 1241.9 | 1214.9 | 1188 | 1163.1 | 1139.8 | 1118.1 | 1097.7 | 1078.9 | 1059.9 | 1041.6
298.15 K | 1237.6 | 1210.5 | 1183.9 | 1159.1 | 1135.7 | 1114.1 | 1093.6 | 1074.9 | 1055.9 | 1037.9
303.15 K | 1233.1 | 1205.9 | 1179.5 | 1154.8 | 1131.5 | 1110 | 1089.6 | 1070.9 | 1051.9 | 1034.1
308.15 K | 1228.6 | 1201.5 | 1175.1 | 1150.4 | 1127.2 | 1105.8 | 1085.6 | 1066.8 | 1048 | 1030.3
313.15 K | 1224.1 | 1197 | 1170.7 | 1146.2 | 1123.1 | 1101.6 | 1081.5 | 1062.8 | 1044 | 1026.5
318.15 K | 1219.6 | 1192.4 | 1166.3 | 1141.9 | 1118.9 | 1097.5 | 1077.5 | 1058.7 | 1040 | 1022.7
323.15 K | 1215.2 | 1187.6 | 1161.9 | 1137.5 | 1114.6 | 1093.3 | 1073.3 | 1054.7 | 1035.9 | 1018.9
328.15 K | 1211.1 | 1183.3 | 1157.7 | 1133.2 | 1110.4 | 1089.2 | 1069.2 | 1050.6 | 1032 | 1015
